# Test results taken from patent US11524960B2, “Heterobicyclic inhibitors of MAT2A and methods of use for treating cancer” (AGIOS PHARMACEUTICALS, INC., priority 2018, dated 2022).
# Read-outs that look alike come from different tables or passages of the source.
# How the values were obtained:
# HCT116 MTAP−/− = assay: Inhibition of cellular proliferation (Cell Titer Glo), HCT116 MTAP−/−; assay type: cell-based, human; details: 4 days, IC50 score, read-out: 4 Day Relative Growth Inhibition (MTAP −/−; Example 277)
# Outline: (§1)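 Proliferation was read as ATP luminescence (Cell Titer Glo) after a 4-day, 37 °C exposure of HCT116 cells differing only in MTAP deletion status. Dosing was 10 points, 3-fold steps, added 24 h post-plating; signal minus blank, relative to 0.2% DMSO control wells, was plotted against log molar concentration.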
# [1] = test system: SAM in HCT116 human colon carcinoma cell line engineered to delete the MTAP gene (MTAP −/−); assay: Cellular assay of target engagement (SAM) by LC-MS/MS; assay type: cell-based; details: IC50 score, read-out: Cell 72 h SAM Inhibition (MTAP −/−; Example 276)
# Outline: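 Intracellular SAM, the MAT2A product, was measured by quantitative LC-MS/MS against a d3-SAM standard in methanol/acetic acid extracts. Extracts came from HCT116 MTAP −/− cells exposed for 72 h at 37 °C to a ten-point, threefold dilution series of compound, added one day after seeding.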
# HCT116 MTAP+/+ = assay: Inhibition of cellular proliferation (Cell Titer Glo), HCT116 MTAP+/+; assay type: cell-based, human; details: 4 days, IC50 score, read-out: 4 Day Relative Growth Inhibition (MTAP +/+; Example 277)
# Outline: as §1
# MAT2A homodimer = biological target: T1, MAT2A homodimer (Homo sapiens, UniProt P31153); assay: Biochemical assay: inhibition of MAT2A (phosphate release, PiColorLock Gold); details: MAT2A IC50 score; read-out: Enzyme Inhibition (Example 275)
# T1 construct: inferred from Ni sepharose purification and imidazole elution; made in house; host or cells: Sf9 insect cells, recombinant baculovirus (Bac to Bac, pFASTBAC1)
# Outline: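 Phosphate formed alongside SAM was read with PiColorLock Gold and quantified against a potassium phosphate standard curve. Reactions ran 60 min at 25 °C after adding a substrate mix of 500 μM ATP and 400 μM L-methionine (mix concentrations). Compound had first been preincubated 60 min with recombinant Sf9-derived MAT2A homodimer ([…]) in pH 8.0 Tris buffer containing MgCl2, KCl, EDTA and BSA.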
# T1 sequence (P31153 whole entry): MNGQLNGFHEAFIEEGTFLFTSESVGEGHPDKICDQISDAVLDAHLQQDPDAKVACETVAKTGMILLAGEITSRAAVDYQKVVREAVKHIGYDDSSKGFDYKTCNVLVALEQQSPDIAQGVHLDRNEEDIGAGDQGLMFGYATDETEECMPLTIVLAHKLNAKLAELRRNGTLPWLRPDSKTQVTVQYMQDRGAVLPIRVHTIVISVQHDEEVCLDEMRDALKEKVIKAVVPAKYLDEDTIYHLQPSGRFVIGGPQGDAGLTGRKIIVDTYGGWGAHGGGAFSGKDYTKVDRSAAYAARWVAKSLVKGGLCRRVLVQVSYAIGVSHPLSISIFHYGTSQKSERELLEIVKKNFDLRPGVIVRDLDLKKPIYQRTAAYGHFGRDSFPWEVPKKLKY
SMILES,"IC50 (HCT116 MTAP−/−; Homo sapiens, HCT-116, 96 h) [nM]","IC50 ([1]; Homo sapiens, HCT-116, 72 h) [nM]","IC50 (HCT116 MTAP+/+; Homo sapiens, HCT-116, 96 h) [nM]",IC50 (MAT2A homodimer) [nM],IC50 (HCT116 MTAP−/−) [nM],IC50 ([1]; 72 h) [nM],IC50 (HCT116 MTAP+/+) [nM]
Cn1cc2cc(-n3cc4ccc(OCC(F)F)nc4c(-c4ccc(OC(F)F)nc4)c3=O)ccc2n1 [Example 123-A],< 100,< 100,100 to 10000,< 100,,,
CCOc1ccc2cn(-c3ccc(OC)cc3)c(=O)c(-c3ccc(C)nc3)c2n1 [Example 114-A],< 100,< 100,100 to 10000,< 100,,,
"O=c1c(-c2ccc(Cl)cc2)c2nc(NCC(F)(F)F)ncc2cn1-c1ccc2ncsc2c1 [Example 129, 6-(benzo[d]thiazol-6-yl)-8-(4-chlorophenyl)-2-(2,2,2-trifluoroethylamino)pyrido[4,3-d]pyrimidin-7(6H)-one]",100 to 10000,100 to 1000,> 10000,< 100,,,
"Cn1nnc2ccc(-n3cc4ccc(NCC(F)(F)F)nc4c(-c4ccc(Cl)cc4)c3=O)cc21 [Example 235, 8-(4-chlorophenyl)-6-(1-methyl-1H-benzo[d][1,2,3]triazol-6-yl)-2-(2,2,2-trifluoroethylamino)-1,6-naphthyridin-7(6H)-one]",< 100,< 100,> 10000,< 100,,,
"Cn1cc2cc(-n3cc4cnc(OCC(F)(F)F)nc4c(-c4ccc(OC(F)F)cc4)c3=O)ccc2n1 [Example 265, 8-(4-(difluoromethoxy)phenyl)-6-(2-methyl-2H-indazol-5-yl)-2-(2,2,2-trifluoroethoxy)pyrido[4,3-d]pyrimidin-7(6H)-one]",< 100,< 100,> 10000,< 100,,,
"O=c1c(-c2ccc(Cl)cc2)c2nc(NCC(F)(F)F)ncc2cn1-c1ccc2ncn(C3CC3)c2c1 [Example 127, 8-(4-chlorophenyl)-6-(1-cyclopropyl-1H-benzo[d]imidazol-6-yl)-2-(2,2,2-trifluoroethylamino)pyrido[4,3-d]pyrimidin-7(6H)-one]",< 100,< 100,> 10000,< 100,,,
"CCOc1ncc2cn(-c3ccc4nn(C)cc4c3)c(=O)c(-c3ccc(Cl)cc3)c2n1 [Example 270, 8-(4-chlorophenyl)-2-ethoxy-6-(2-methyl-2H-indazol-5-yl)pyrido[4,3-d]pyrimidin-7(6H)-one]",< 100,< 100,> 10000,< 100,,,
"Cc1c2cc(-n3cc4ccc(NCC(F)(F)F)nc4c(-c4ccc(Cl)cc4)c3=O)ccc2nn1C [Example 237, 8-(4-chlorophenyl)-6-(2,3-dimethyl-2H-indazol-5-yl)-2-(2,2,2-trifluoroethylamino)-1,6-naphthyridin-7(6H)-one]",< 100,< 100,> 10000,< 100,,,
CCOc1cc(C)c2cn(-c3ccc4nn(C)cc4c3)c(=O)c(-c3ccc(Cl)cc3)c2n1 [Example 122-A],< 100,< 100,100 to 10000,< 100,,,
"Cn1cc2cc(-n3cc4ccc(NCC(F)(F)F)nc4c(-c4ccc(C(F)(F)F)cc4)c3=O)ccc2n1 [Example 213, 6-(2-methyl-2H-indazol-5-yl)-2-((2,2,2-trifluoroethyl)amino)-8-(4-(trifluoromethyl)phenyl)-1,6-naphthyridin-7(6H)-one]",< 100,< 100,> 10000,< 100,,,
"CCOc1ccc2cn(-c3ccc4nn(C)cc4c3)c(=O)c(-c3ccc(-c4cc[nH]n4)cc3)c2n1 [Example 223, 8-(4-(1H-pyrazol-3-yl)phenyl)-2-ethoxy-6-(2-methyl-2H-indazol-5-yl)-1,6-naphthyridin-7(6H)-one]",100 to 10000,100 to 1000,> 10000,< 100,,,

# Next, values leading:
"IC50 (HCT116 MTAP−/−; Homo sapiens, HCT-116, 96 h) [nM]","IC50 ([1]; Homo sapiens, HCT-116, 72 h) [nM]","IC50 (HCT116 MTAP+/+; Homo sapiens, HCT-116, 96 h) [nM]",IC50 (MAT2A homodimer) [nM],IC50 (HCT116 MTAP−/−) [nM],IC50 ([1]; 72 h) [nM],IC50 (HCT116 MTAP+/+) [nM],SMILES
< 100,< 100,100 to 10000,< 100,,,,"CCOc1ccc2cn(-c3ccc4ncn(C)c4c3)c(=O)c(-c3ccc(OC(F)F)cc3)c2n1 [Example 253, 8-(4-(difluoromethoxy)phenyl)-2-ethoxy-6-(1-methyl-1H-benzo[d]imidazol-6-yl)-1,6-naphthyridin-7(6H)-one]"
100 to 10000,100 to 1000,100 to 10000,< 100,,,,"Cn1cc(-n2cc3cnc(NCC(F)(F)F)nc3c(-c3ccc(OC(F)F)cc3)c2=O)ccc1=O [Example 155, 8-(4-(difluoromethoxy)phenyl)-6-(1-methyl-6-oxo-1,6-dihydropyridin-3-yl)-2-((2,2,2-trifluoroethyl)amino)pyrido[4,3-d]pyrimidin-7(6H)-one]"
< 100,< 100,100 to 10000,< 100,,,,"CCOc1ccc2cn(-c3ccc4nn(C)cc4c3)c(=O)c(-c3ccc(C(F)(F)F)cc3)c2n1 [Example 215, 2-ethoxy-6-(2-methyl-2H-indazol-5-yl)-8-(4-(trifluoromethyl)phenyl)-1,6-naphthyridin-7(6H)-one]"
< 100,< 100,> 10000,< 100,,,,"CCn1cc2cc(-n3cc4cnc(NCC(F)(F)F)nc4c(-c4ccc(OC(F)F)cc4)c3=O)ccc2n1 [Example 152, 8-(4-(difluoromethoxy)phenyl)-6-(2-ethyl-2H-indazol-5-yl)-2-((2,2,2-trifluoroethyl)amino)pyrido[4,3-d]pyrimidin-7(6H)-one]"
100 to 10000,< 100,100 to 10000,< 100,,,,CCOc1cnc2cn(-c3ccc4nn(C)cc4c3)c(=O)c(-c3ccc(OC(F)(F)F)nc3)c2n1 [Example 148-A]
< 100,< 100,> 10000,< 100,,,,"Cn1cc2cc(-n3cc4ccc(SCC(F)(F)F)nc4c(-c4ccc(Cl)cc4)c3=O)ccc2n1 [Example 209, 8-(4-chlorophenyl)-6-(2-methyl-2H-indazol-5-yl)-2-((2,2,2-trifluoroethyl)thio)-1,6-naphthyridin-7(6H)-one]"
< 100,< 100,> 10000,< 100,,,,"Cn1cnc2ccc(-n3cc4ccc(NCC(F)(F)F)nc4c(-c4ccc(Cl)cc4)c3=O)cc21 [Example 234, 8-(4-chlorophenyl)-6-(1-methyl-1H-benzo[d]imidazol-6-yl)-2-(2,2,2-trifluoroethylamino)-1,6-naphthyridin-7(6H)-one]"
< 100,< 100,> 10000,< 100,,,,"CCNc1ncc2cn(-c3ccc4nn(C)cc4c3)c(=O)c(-c3ccc(Cl)cc3)c2n1 [Example 169, 8-(4-chlorophenyl)-2-(ethylamino)-6-(2-methyl-2H-indazol-5-yl)pyrido[4,3-d]pyrimidin-7(6H)-one]"
< 100,< 100,> 10000,< 100,,,,"CCOc1ccc2cn(-c3ccc4ncccc4c3)c(=O)c(-c3ccc(Cl)cc3)c2n1 [Example 243, 8-(4-chlorophenyl)-2-ethoxy-6-(quinolin-6-yl)-1,6-naphthyridin-7(6H)-one]"
100 to 10000,100 to 1000,> 10000,< 100,,,,"COc1ccc(-n2cc3cnc(NCC(F)(F)F)nc3c(-c3ccc(C4CC4)cc3)c2=O)cc1 [Example 167, 8-(4-cyclopropylphenyl)-6-(4-methoxyphenyl)-2-((2,2,2-trifluoroethyl)amino)pyrido[4,3-d]pyrimidin-7(6)-one]"
100 to 10000,100 to 1000,100 to 10000,< 100,,,,"Cn1cc2cc(-n3cc4ccc(CCC(F)(F)F)nc4c(-c4ccc(Cl)cc4)c3=O)ccc2n1 [Example 138-A, 8-(4-chlorophenyl)-6-(2-methyl-2H-indazol-5-yl)-2-(3,3,3-trifluoropropyl)-1,6-naphthyridin-7(6H)-one]"
100 to 10000,< 100,100 to 10000,< 100,,,,Cn1cc2cc(-n3cc4ncc(OCC(F)F)nc4c(-c4ccc(OC(F)F)nc4)c3=O)ccc2n1 [Example 144-A]
,,,< 100,< 100,< 100,100 to 10000,CCOc1ccc2cn(-c3ccc(=O)n(CCS(C)(=O)=O)c3)c(=O)c(-c3ccc(OC(F)F)cc3)c2n1 [Example 107-A]
100 to 10000,< 100,100 to 10000,< 100,,,,"O=c1c(-c2ccc(OC(F)F)cc2)c2nc(NCC(F)(F)F)ncc2cn1-c1ccc2c(c1)OCCO2 [Example 178, 8-(4-(difluoromethoxy)phenyl)-6-(2,3-dihydrobenzo[b][1,4]dioxin-6-yl)-2-((2,2,2-trifluoroethyl)amino)pyrido[4,3-d]pyrimidin-7(6H)-one]"
